# Reference: US12636290B2, “BET inhibitors for modulating DUX4 expression in FSHD” (Saint Louis University, priority 2018, dated 2026)
# Read-outs that look alike come from different tables or passages of the source.
# System: DUX4 expression (surrogate marker MBD3L2)
# Experiment: Screening: qPCR analysis of DUX4 target gene MBD3L2 in differentiating MB200 FSHD2 muscle cells
# Type: cell-based
# Conditions: Homo sapiens, 40 hours, DUX4 expression inferred from surrogate marker MBD3L2 expression (qPCR, normalized to RPL30)
# Description: Cells and Cell Culture. Primary human myoblast cell lines, immortalized by retroviral transduction of cyclin-dependent kinase 4 (CDK4) and human telomerase reverse transcriptase (hTERT) (Stadler, et al., 2011), were obtained from the Fields Center at the University of Rochester (world-wide-web at urmc.rochester.edu/fields-center.aspx). Immortalized myoblasts were grown in Ham's F-10 Nutrient Mix (Gibco, Waltham, MA, USA) supplemented with 20% HyClone Fetal Bovine Serum (GE Healthcare Life Sciences, Pittsburgh, PA, USA), 100 U/100 μg penicillin/streptomycin (Gibco), 10 ng/ml recombinant human fibroblast growth factor (Promega Corporation, Madison, WI, USA) and 1 μM dexamethasone (Sigma-Aldrich). Differentiation of myoblasts into myotubes was achieved by switching the fully confluent myoblast monolayer into Dulbecco's Modified Eagle Medium (DMEM) (Gibco) containing 1% horse serum (Gibco), 100 U/100 μg penicillin/streptomycin, 10 μg/ml insulin (Sigma-Aldrich) and 10 μg/ml transferrin (Sigma-Aldrich) (HS/IT media) or DMEM:F12 Nutrient Mixture (1:1, Gibco) supplemented with 2% KnockOut Serum Replacement (Gibco), 100 U/100 μg penicillin/streptomycin, 10 μg/ml insulin and 10 μg/ml transferrin (KSR media) for 2-6 days.
# Screening: qPCR analysis of DUX4 target genes MBD3L2. For screening compounds, differentiating MB200 FSHD2 muscle cells were exposed to BET inhibitors at a variety of concentrations for 40 hours to determine the effects of the drugs on DUX4 expression. Cell lysates were prepared using Cells-to-Ct Bulk Lysis Reagents (Invitrogen, Waltham, MA, USA). Gene expression was measured by quantitative polymerase chain reaction (qPCR) was carried out on a QuantStudio 5 (Applied Biosystems, Waltham, MA, USA) using TaqMan Gene Expression Assays (Applied Biosystems) and TaqMan Fast Virus 1-Step Master Mix (Invitrogen). The relative expression levels of DUX4 target gene methyl-CpG binding domain protein 3 like 2 (MBD3L2), was normalized to that of the reference gene ribosomal protein L30 (RPL30), which was included in multiplex (two gene) PCR reactions. TaqMan Gene Expression Assay ID numbers: MBD3L2, Hs00544743_m1; RPL30, Hs00265497_m1. Data is expressed as relative expression with the expression in absence of inhibitors set to one.
# Analysis of MBD3L2 expression in cultured FSHD2 cells. DUX4 mRNA is present in very low levels, even in differentiating FSHD2 myoblasts, so DUX4 target gene MBD3L2 was used as a surrogate marker of DUX4 expression. FSHD2 patient derived muscle cells were analyzed to determine whether BET inhibitors affect MBD3L2 expression, indicating a reduction in DUX4 expression.
Structure (SMILES),IC50 (read-out: DUX4* MT FSHD2: IC50) [nM],IC50 (read-out: DUX4* MT FSHD2 IC50) [nM]
"C[C@@H]1C(=O)N(C)CCN1CCOc1ccc(C2CCN(c3ccc(-c4cn(C)c(=O)c5[nH]ccc45)cn3)CC2)cc1 [SLU-2089, (R)-4-{6-[4-(4-(2-(2,4-dimethyl-3-oxopiperazin-1-yl)ethoxy)phenyl)piperidin-1-yl]pyridin-3-yl}-6-methyl-1H-pyrrolo[2,3-c]pyridin-7(6H)-one]",4.8,4.8
"CC(=O)N1C[C@@H](C)N(CCOc2ccc(C3CCN(c4ccc(-c5cn(C)c(=O)c6[nH]ccc56)cn4)CC3)cc2)[C@@H](C)C1 [SLU-2090, 4-{6-[4-(4-(2-((2R,6S)-4-acetyl-2,6-dimethylpiperazin-1-yl)ethoxy)phenyl)piperidin-1-yl]pyridin-3-yl}-6-methyl-1H-pyrrolo[2,3-c]pyridin-7(6H)-one]",43,43
"C[C@@H]1C(=O)N(C)CCN1CCOc1ccc(C2CCN(c3ncc(-c4cn(C)c(=O)c5[nH]ccc45)cn3)CC2)cc1 [SLU-2091, (R)-4-{2-[4-(4-(2-(2,4-dimethyl-3-oxopiperazin-1-yl)ethoxy)phenyl)piperidin-1-yl]pyrimidin-5-yl}-6-methyl-1H-pyrrolo[2,3-c]pyridin-7(6H)-one]",20,20
"CC(=O)N1C[C@@H](C)N(CCOc2ccc(-c3ccc(-c4cn(C)c(=O)c5[nH]ccc45)cc3)cc2)[C@@H](C)C1 [SLU-2096, 4-{4′-[2-((2R,6S)-4-acetyl-2,6-dimethylpiperazin-1-yl)ethoxy]-[1,1′-biphenyl]-4-yl}-6-methyl-1H-pyrrolo[2,3-c]pyridin-7(6H)-one]",180,180
"C[C@@H]1C(=O)N(C)CCN1CCOc1ccc(-c2ccc(-c3cn(C)c(=O)c4[nH]ccc34)cc2)cc1 [SLU-2097, (R)-4-{4′-[2-(2,4-dimethyl-3-oxopiperazin-1-yl)ethoxy]-[1,1′-biphenyl]-4-yl}-6-methyl-1H-pyrrolo[2,3-c]pyridin-7(6H)-one]",120,120
"COc1cc(-c2ccc(OCCN3[C@H](C)CN(C(C)=O)C[C@@H]3C)cc2)ccc1-c1cn(C)c(=O)c2[nH]ccc12 [SLU-2098, 4-{4′-[2-((2R,6S)-4-acetyl-2,6-dimethylpiperazin-1-yl)ethoxy)-3-methoxy-[1,1′-biphenyl]-4-yl}-6-methyl-1H-pyrrolo[2,3-c]pyridin-7(6H)-one]",310,310
"COc1cc(-c2ccc(OCCN3CCN(C)C(=O)[C@H]3C)cc2)ccc1-c1cn(C)c(=O)c2[nH]ccc12 [SLU-2102, (R)-4-{4′-[2-(2,4-dimethyl-3-oxopiperazin-1-yl)ethoxy]-3-methoxy-[1,1′-biphenyl]-4-yl}-6-methyl-1H-pyrrolo[2,3-c]pyridin-7(6H)-one]",130,130
"CC(=O)N1C[C@@H](C)N(CCOc2ccc(-c3ccc4nc(-c5cn(C)c(=O)c6[nH]ccc56)ccc4c3)cc2)[C@@H](C)C1 [SLU-2104, 4-{6-[4-(2-((2R,6S)-4-acetyl-2,6-dimethylpiperazin-1-yl)ethoxy)phenyl]quinolin-2-yl}-6-methyl-1H-pyrrolo[2,3-c]pyridin-7(6H)-one]",43,43
"CC(=O)N1C[C@@H](C)N(CCOc2ccc(-c3ccc4cc(-c5cn(C)c(=O)c6[nH]ccc56)ccc4n3)cc2)[C@@H](C)C1 [SLU-2107, 4-{2-[4-(2-((2R,6S)-4-acetyl-2,6-dimethylpiperazin-1-yl)ethoxy)phenyl]quinolin-6-yl}-6-methyl-1H-pyrrolo[2,3-c]pyridin-7(6H)-one]",48,48
"COc1ccc(C2CCN(c3ccc(-c4cn(C)c(=O)c5[nH]ccc45)cn3)CC2)cc1 [SLU-2108, 4-{6-[4-(4-methoxyphenyl)piperidin-1-yl]pyridin-3-yl}-6-methyl-1H-pyrrolo[2,3-c]pyridin-7(6H)-one]",280,280
"CN(C)CCOc1ccc(C2CCN(c3ccc(-c4cn(C)c(=O)c5[nH]ccc45)cn3)CC2)cc1 [SLU-2109, 4-{6-[4-(4-(2-(dimethylamino)ethoxy)phenyl)piperidin-1-yl]pyridin-3-yl}-6-methyl-1H-pyrrolo[2,3-c]pyridin-7(6H)-one]",33,33
"C[C@@H]1C(=O)N(C)CCN1CCOc1ccc(N2CCN(c3ccc(-c4cn(C)c(=O)c5[nH]ccc45)cn3)CC2)nc1 [SLU-2110, (R)-4-{6-[4-(5-(2-(2,4-dimethyl-3-oxopiperazin-1-yl)ethoxy)pyridin-2-yl)piperazin-1-yl]pyridin-3-yl}-6-methyl-1H-pyrrolo[2,3-c]pyridin-7(6H)-one]",16,16
"COc1cc(N2CCC(c3ccc(OCCN4CCN(C)C(=O)[C@H]4C)cc3)CC2)ncc1-c1cn(C)c(=O)c2[nH]ccc12 [SLU-2111, (R)-4-{6-[4-(4-(2-(2,4-dimethyl-3-oxopiperazin-1-yl)ethoxy)phenyl)piperidin-1-yl]-4-methoxypyridin-3-yl}-6-methyl-1,6-dihydro-7H-pyrrolo[2,3-c]pyridin-7-one]",29,29
"C[C@@H]1C(=O)N(C)CCN1CCOc1ccc(-c2ccc3nc(-c4cn(C)c(=O)c5[nH]ccc45)ccc3c2)cc1 [SLU-2112, (R)-4-{6-[4-(2-(2,4-dimethyl-3-oxopiperazin-1-yl)ethoxy)phenyl]quinolin-2-yl}-6-methyl-1H-pyrrolo[2,3-c]pyridin-7(6H)-one]",40,40
"CN1CCN(CCOc2ccc(C3CCN(c4ccc(-c5cn(C)c(=O)c6[nH]ccc56)cn4)CC3)cc2)CC1 [SLU-2114, 6-methyl-4-{6-[4-(4-(2-(4-methylpiperazin-1-yl)ethoxy)phenyl)piperidin-1-yl]pyridin-3-yl}-1H-pyrrolo[2,3-c]pyridin-7(6H)-one]",330,330
"Cn1cc(-c2ccc(N3CCC4(CCN(C(=O)CO)CC4)CC3)nc2)c2cc[nH]c2c1=O [SLU-2115, 4-{6-[9-(2-hydroxyacetyl)-3,9-diazaspiro[5.5]undecan-3-yl]pyridin-3-yl}-6-methyl-1H-pyrrolo[2,3-c]pyridin-7(6H)-one]",97,97
"Cn1cc(-c2ccc(N3CCC(c4ccc(OCCN5CCCCC5)cc4)CC3)nc2)c2cc[nH]c2c1=O [SLU-2116, 6-methyl-4-{6-[4-(4-(2-(piperidin-1-yl)ethoxy)phenyl)piperidin-1-yl]pyridin-3-yl}-1H-pyrrolo[2,3-c]pyridin-7(6H)-one]",270,270
"COc1cc(N2CCC(c3ccc(OCCN4[C@H](C)CN(C(C)=O)C[C@@H]4C)cc3)CC2)ncc1-c1cn(C)c(=O)c2[nH]ccc12 [SLU-2117, 4-{6-[4-(4-(2-((2R,6S)-4-acetyl-2,6-dimethylpiperazin-1-yl)ethoxy)phenyl)piperidin-1-yl]-4-methoxypyridin-3-yl}-6-methyl-1H-pyrrolo[2,3-c]pyridin-7(6H)-one]",91,91
"Cn1cc(-c2ccc(N3CCC(c4ccc(OCCN5CCOCC5)cc4)CC3)nc2)c2cc[nH]c2c1=O [SLU-2118, 6-methyl-4-{6-[4-(4-(2-morpholinoethoxy)phenyl)piperidin-1-yl]pyridin-3-yl}-1H-pyrrolo[2,3-c]pyridin-7(6H)-one]",261,261
"Cn1cc(-c2ccc(N3CCC(c4ccc(OCCn5cncn5)cc4)CC3)nc2)c2cc[nH]c2c1=O [SLU-2119, 4-{6-[4-(4-(2-(1H-1,2,4-triazol-1-yl)ethoxy)phenyl)piperidin-1-yl]pyridin-3-yl}-6-methyl-1H-pyrrolo[2,3-c]pyridin-7(6H)-one]",130,130
"Cn1cc(-c2ccc(N3CCC4(CCNC4)CC3)nc2)c2cc[nH]c2c1=O [SLU-2120, 4-[6-(2,8-diazaspiro[4.5]decan-8-yl)pyridin-3-yl]-6-methyl-1H-pyrrolo[2,3-c]pyridin-7(6H)-one]",350,350
"CC(C)CCOc1ccc(C2CCN(c3ccc(-c4cn(C)c(=O)c5[nH]ccc45)cn3)CC2)cc1 [SLU-2124, 4-{6-[4-(4-(isopentyloxy)phenyl)piperidin-1-yl]pyridin-3-yl}-6-methyl-1H-pyrrolo[2,3-c]pyridin-7(6H)-one]",1300,1300
Cn1cc(-c2ccc(N3CCC4(CCN(C(=O)CO)C4)CC3)nc2)c2cc[nH]c2c1=O [SLU-2127],37,37
